Reference: patent US20200179341A1, “METHODS AND COMPOSITIONS FOR TREATING MULTIPLE MYELOMA AND INCREASING ANTIBODY DEPENDENT CELL CYTOTOXICITY BY TARGETING THE ARYL HYDROCARBON RECEPTOR” (priority 2016, published 2020)

Legend:
[1] = test system: MM cell targets; test: Antibody-mediated ADCC with AHR antagonism (cytotoxicity co-culture); type: cell-based
Protocol: A series of in vitro studies are conducted in which immune effector cells and/or MM cell targets are pre-treated with vehicle or CH233191 prior to cytotoxicity co-culture assay. Accounting for the baseline, direct effect of AHR antagonism on MM cell viability, any additive rate of target cell death in the combinatorial condition can be studied, in particular when both effectors and targets are pre-exposed to CH233191. Using validated techniques (Benson Blood 2010), the effects of CH233191 on immune effector cell expansion, expression of activating receptors, and abilities to traffic to, acquire, and lyse MM targets is studied. These experiments are conducted in the presence of therapeutic monoclonal antibodies in order to assess whether AHR antagonism may enhance ADCC-mediated immunotherapy (e.g., Elotuzumab, Daratumumab/Isatuximab/Rituximab/Milatuzumab).

[2] = test system: MM tumor cell burden; test: CH233191 by oral gavage in a disseminated murine MM model
[3] = test system: MM cells; test: Surface expression (MFI) of MM antigens targetable by therapeutic monoclonal antibodies after AHR inhibition; type: cell-based
Protocol: AHR antagonism enhances MM expression of antigens targetable by therapeutic monoclonal antibodies. […] Accordingly, NK-cell mediated killing of MM tumor cells is tested by combining AHR antagonism of effector cells and MM targets with therapeutic monoclonal antibodies.

[4] = test system: NK cell precursors; test: NK cell development and function from AHR-expressing innate lymphoid cell precursors; type: cell-based; conditions: compared to control and AHR agonist (FICZ) treated cells; FIG. 2
[5] = test system: NK cell precursors; conditions: Roeven Blood 2014; cited from earlier work

| Structure (SMILES) | Elotuzumab-mediated ADCC ([1]; FIG. 9, with Elotuzumab) | Daratumumab-mediated ADCC ([1]; FIG. 10, with Daratumumab) | oral bioavailability ([2]; difficulties with solubilization in corn oil for gavage) | apparent reduction in MM tumor cell burden ([2]; oral gavage in corn oil, versus vehicle-treated controls) | survival outcome ([2]; oral gavage, disseminated murine MM model) | MFI (CH233191), CD20 ([3]; surface antigen CD20, antibody Rituximab, DMSO control MFI 321) | MFI (CH233191), CD38 ([3]; surface antigen CD38, antibodies Daratumumab, Isatuximab, DMSO control MFI 2959) | MFI (CH233191), CD74 ([3]; surface antigen CD74, antibody Milatuzumab, DMSO control MFI 761) | MFI (CH233191), SLAMF7 (CS1) ([3]; surface antigen SLAMF7 (CS1), antibody Elotuzumab, DMSO control MFI 1946) | acquisition of cytokine production and cytotoxicity capabilities [4] | acquisition of NK cell function (corroboration) [5] |
| --- | --- | --- | --- | --- | --- | --- | --- | --- | --- | --- | --- |
| Cc1ccccc1N=Nc1ccc(NC(=O)c2ccnn2C)c(C)c1 [CH233191] | appears to enhance | appears to enhance | questionable | 2 of 5 | all mice died of progressive MM | 753 | 6110 | 1367 | 2999 | rapid acquisition of cytokine production as well as cytotoxicity capabilities |  |
| CC(C)n1cnc2c(NCCc3ccc(O)cc3)nc(-c3csc4ccccc34)nc21 [Stemreginin 1] |  |  |  |  |  |  |  |  |  |  | corroborated this finding |
